Dmax and DC50 data for 8 compounds are collected here from US12606568B2, “SMARCA degraders and uses thereof” (Kymera Therapeutics, Inc., priority 2020, dated 2026).

Assay type in all cases: cell-based
Experiment [1] deals with T1, SMARCA2 (Homo sapiens, UniProt P51531). The experiment is described as follows: SMARCA2 Western blot MV4-11 degradation. Further details: SMARCA2 and SMARCA4 protein degradation in MV4-11 cells; endogenous in cells; host or cells: MV4-11. Conditions: 24 h; for Dmax: MV4-11, MV4-11 cells, read-out: SMARCA2 MSD MV411 degradation 24 h: average Dmax %; for DC50: MV4-11 cells, read-out: SMARCA2 MSD MV411 degradation 24 h: Mean external-Abs DC50. Here is the method:
(§1) Example 54. SMARCA2 and SMARCA 4 Western Blot MV4-11 Degradation
(§2) Cells were seeded into 6-well plates (MV4-11: 4×10^6 cells/well/1 ml) and 1 ml of 2× compound solution was added into the well to make the final concentration and the plates were mixed well and incubated for 24 hours (No cytotoxicity was observed). The cell were collected with media and spun at 3000 rpm for 5 minutes. The supernatant was aspirated and the well and the cells were washed with cold PBS once and combined for centrifugation again; the supernatant aspirated again. 200 ul pre-chilled RIPA lysis buffer (Boston BioProducts BP-115D) with protease/phosphatase inhibitor (Roche 05892791001/Roche 04906837001) was directly added into the tube to lyze the cells for 20 minutes on ice. The cell lysate were collected into EP tubes and spun at 13000 rpm for 20 minutes and 72 ul supernatant was transferred to a fresh EP tube containing 18 ul of 5× loading buffer (Beyotime Bio P0015) to make the loading samples. The samples were heated to 100° C. for 10 minutes and cooled to RT and microcentrifuged. 20 ul of samples were loaded onto SDS-PAGE gel (Novex, WG1402BOX) and the gel was run at 80 V for 20 minutes and 120 V for 1.5 hours. The samples were electrotransfer to a NC membrane using wet-transfer method with 250 mA for 2.5 hours. The membrane was blocked with LICOR blocking buffer (LI-COR, 927-50000) for 1 hour. The membrane was washed three times with TBST (CST #9997S), 5 minutes each. Incubation was performed with primary antibody prepared in blocking buffer with 0.1% Tween-20 (Solarbio, P8220) at 4° C. overnight (Anti-SMARCA2/BRM antibody (ab15597) 1:500; Anti-BRG1 antibody [EPR3912] (ab108318) 1:1000; Rabbit anti-Baf180 antibody [EPR15860] (Abcam, ab196022) 1:1000; mouse anti-beta-Actin (8H10D10) (CST #3700) 1:10000). The membrane was washed three times with TBST, 5 minutes each. Incubation with secondary antibody was performed for 1 hour at RT (anti-rabbit IgG (Licor, 926-32211) 1:5000; anti-mouse IgG (LI-COR, 926-68070) 1:5000). The membrane was washed three times with TBST, 5 minutes each and lastly the LiCOR was read.
(§3) The letter codes for SMARCA degradation potency (DC50) include: A (<100 nM), B (100-500 nM), C (501-1000 nM), and D (>1000 nM). The letter codes for the percentage of SMARCA degradation after 24 hours (Dmax %) include: A (>90% degradation), B (>70-90% degradation), C (50-70% degradation), and D (<50% degradation).
Background: A western blot detects proteins with antibodies after separation by electrophoresis.

Experiment [2] concerns the target T1, SMARCA2. As to the kind of experiment: MSD SMARCA2 degradation in A549 cell line. Further details: endogenous in cells. Conditions: 24 h; for Dmax: A549, A549 cells; for DC50: A549 cells, read-out: SMARCA2 MSD A549 degradation 24 h: Average external-Abs DC50. Here is the method:
Example 53. MSD SMARCA2 Degradation in A549 Cell Line
Cells were seeded into 96-well plates (A549 cells: 2×10^4 cells/well/100 ul media) abd incubated overnight. The next day, 200 nl compound were added into the intermediate plate with Echo (Labcyte 550) from source plate containing a 3-fold serial dilution from top concentration of 1 mM. The culture medium was changed with 80 ul of fresh medium and 80 ul of 2× compound solution was added into the well to make a final concentration of 1000 nM, 333.3 nM, 111.1 nM, 37.04 nM, 12.35 nM, 4.115 nM, 1.372 nM, 0.457 nM, 0.152 nM and 0 nM (DMSO). The wells were mixed and then incubated for 24 hours. The media was aspirated from the cultures and 60 ul pre-chilled PIPA lysis buffer (Boston BioProducts BP-115D) with protease/phosphatase inhibitor (Roche 05892791001/Roche 04906837001) was added into the well to lyze the cells for 20 minutes at 4° C. The MSD plate (L15XA) was coated with 40 ul cell lysate and incubated at 4° C. overnight. The next day, the plate was washed three times with TBST (CST #9997S), 150 ul/well. The MSD plates was blocked with 150 ul blocking buffer per well and shaked for 1 hr at R^†, 600 rpm. The blocking buffer was 3% Blocker A (MSD, R93BA-4) in TBST. The MSD plate was washed three times with 150 ul/well of TBST and 25 ul/well of detection antibody (Rabbit anti-SMARCA2/BRM antibody, 100 μg/ml, ab223735) was added at final concentration of 1 ug/mi diluted in 1% o Blocking buffer and shaken for 1 hour at R^†, 600 rpm. The MSD plate was washed three times with 150 ul/well of TBST and 25 ul/well of SULFO-TAG anti-rabbit antibody (MSD, R32AB-1) was added at final concentration of 1 μg/ml diluted in […] Blocking buffer and shaken for 1 hour at R^†, 600 rpm. The MSD plate was washed three times with 150 ul/well of TBST and 150 ul/well of 2×MSD reading buffer diluted from 4× (MSD, R92TC-2) with water was added. Lastly, the MSD instrument was read.
The letter codes for SMARCA2 degradation potency (DC50) include: A (<100 nM), B (100-500 nM), C (501-1000 nM), and D (>1000 nM). The letter codes for the percentage of SMARCA2 degradation after 24 hours (Dmax % o) include: A (>90% o degradation), B (>70-90% o degradation), C (50-70% o degradation), and D (<50% degradation).

A further experiment has as its target T2, SMARCA4 (Homo sapiens, UniProt P51532).
T2 construct: SMARCA2 and SMARCA4 protein degradation in MV4-11 cells; endogenous in cells; host or cells: MV4-11
The experiment is described as follows: SMARCA4 Western blot MV4-11 degradation. Conditions: MV4-11 cells, 24 h; read-out: SMARCA4 MSD MV411 degradation 24 h: Mean external-Abs DC50. Here is the method: as §1, §2, §3

T1 sequence (P51531 whole entry): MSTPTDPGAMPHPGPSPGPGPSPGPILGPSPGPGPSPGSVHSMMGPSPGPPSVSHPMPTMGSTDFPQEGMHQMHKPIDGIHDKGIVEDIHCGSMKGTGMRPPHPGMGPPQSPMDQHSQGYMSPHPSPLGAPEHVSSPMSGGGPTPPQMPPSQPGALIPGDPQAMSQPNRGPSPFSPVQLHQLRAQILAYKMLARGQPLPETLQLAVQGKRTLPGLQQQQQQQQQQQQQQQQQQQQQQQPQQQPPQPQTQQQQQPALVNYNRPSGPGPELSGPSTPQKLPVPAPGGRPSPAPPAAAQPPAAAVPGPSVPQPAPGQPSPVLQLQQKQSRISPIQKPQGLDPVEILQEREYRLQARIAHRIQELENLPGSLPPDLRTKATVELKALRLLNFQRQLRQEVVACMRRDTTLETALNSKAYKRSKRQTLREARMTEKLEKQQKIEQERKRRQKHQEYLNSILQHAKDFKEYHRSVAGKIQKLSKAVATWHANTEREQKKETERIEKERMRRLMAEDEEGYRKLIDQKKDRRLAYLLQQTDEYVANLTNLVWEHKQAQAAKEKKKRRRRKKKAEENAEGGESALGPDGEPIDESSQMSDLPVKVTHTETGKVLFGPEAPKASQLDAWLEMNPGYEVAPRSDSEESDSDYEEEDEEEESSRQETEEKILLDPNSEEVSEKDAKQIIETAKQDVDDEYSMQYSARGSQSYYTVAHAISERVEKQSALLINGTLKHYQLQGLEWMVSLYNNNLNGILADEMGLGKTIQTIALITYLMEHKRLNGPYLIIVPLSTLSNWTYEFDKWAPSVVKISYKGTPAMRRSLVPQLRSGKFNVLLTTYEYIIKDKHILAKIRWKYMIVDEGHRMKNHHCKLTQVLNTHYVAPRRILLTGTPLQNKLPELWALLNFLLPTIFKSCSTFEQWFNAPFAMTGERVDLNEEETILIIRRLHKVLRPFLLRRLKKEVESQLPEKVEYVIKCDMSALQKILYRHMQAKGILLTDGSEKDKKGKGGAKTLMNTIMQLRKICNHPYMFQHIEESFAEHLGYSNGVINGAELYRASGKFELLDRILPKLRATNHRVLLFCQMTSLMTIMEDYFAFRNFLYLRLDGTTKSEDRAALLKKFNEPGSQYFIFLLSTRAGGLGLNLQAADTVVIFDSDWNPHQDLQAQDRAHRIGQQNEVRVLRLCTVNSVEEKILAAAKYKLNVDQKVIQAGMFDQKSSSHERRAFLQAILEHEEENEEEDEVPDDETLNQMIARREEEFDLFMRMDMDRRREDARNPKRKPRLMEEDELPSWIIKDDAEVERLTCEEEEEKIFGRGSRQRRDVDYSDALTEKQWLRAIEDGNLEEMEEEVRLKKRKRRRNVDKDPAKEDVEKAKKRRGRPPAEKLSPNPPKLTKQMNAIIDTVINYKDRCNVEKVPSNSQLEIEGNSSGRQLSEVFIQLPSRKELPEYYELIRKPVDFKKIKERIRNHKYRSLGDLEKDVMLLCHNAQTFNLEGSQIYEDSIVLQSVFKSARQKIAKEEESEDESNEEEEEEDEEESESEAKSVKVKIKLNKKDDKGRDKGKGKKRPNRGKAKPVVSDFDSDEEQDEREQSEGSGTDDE
T2 sequence (P51532 whole entry): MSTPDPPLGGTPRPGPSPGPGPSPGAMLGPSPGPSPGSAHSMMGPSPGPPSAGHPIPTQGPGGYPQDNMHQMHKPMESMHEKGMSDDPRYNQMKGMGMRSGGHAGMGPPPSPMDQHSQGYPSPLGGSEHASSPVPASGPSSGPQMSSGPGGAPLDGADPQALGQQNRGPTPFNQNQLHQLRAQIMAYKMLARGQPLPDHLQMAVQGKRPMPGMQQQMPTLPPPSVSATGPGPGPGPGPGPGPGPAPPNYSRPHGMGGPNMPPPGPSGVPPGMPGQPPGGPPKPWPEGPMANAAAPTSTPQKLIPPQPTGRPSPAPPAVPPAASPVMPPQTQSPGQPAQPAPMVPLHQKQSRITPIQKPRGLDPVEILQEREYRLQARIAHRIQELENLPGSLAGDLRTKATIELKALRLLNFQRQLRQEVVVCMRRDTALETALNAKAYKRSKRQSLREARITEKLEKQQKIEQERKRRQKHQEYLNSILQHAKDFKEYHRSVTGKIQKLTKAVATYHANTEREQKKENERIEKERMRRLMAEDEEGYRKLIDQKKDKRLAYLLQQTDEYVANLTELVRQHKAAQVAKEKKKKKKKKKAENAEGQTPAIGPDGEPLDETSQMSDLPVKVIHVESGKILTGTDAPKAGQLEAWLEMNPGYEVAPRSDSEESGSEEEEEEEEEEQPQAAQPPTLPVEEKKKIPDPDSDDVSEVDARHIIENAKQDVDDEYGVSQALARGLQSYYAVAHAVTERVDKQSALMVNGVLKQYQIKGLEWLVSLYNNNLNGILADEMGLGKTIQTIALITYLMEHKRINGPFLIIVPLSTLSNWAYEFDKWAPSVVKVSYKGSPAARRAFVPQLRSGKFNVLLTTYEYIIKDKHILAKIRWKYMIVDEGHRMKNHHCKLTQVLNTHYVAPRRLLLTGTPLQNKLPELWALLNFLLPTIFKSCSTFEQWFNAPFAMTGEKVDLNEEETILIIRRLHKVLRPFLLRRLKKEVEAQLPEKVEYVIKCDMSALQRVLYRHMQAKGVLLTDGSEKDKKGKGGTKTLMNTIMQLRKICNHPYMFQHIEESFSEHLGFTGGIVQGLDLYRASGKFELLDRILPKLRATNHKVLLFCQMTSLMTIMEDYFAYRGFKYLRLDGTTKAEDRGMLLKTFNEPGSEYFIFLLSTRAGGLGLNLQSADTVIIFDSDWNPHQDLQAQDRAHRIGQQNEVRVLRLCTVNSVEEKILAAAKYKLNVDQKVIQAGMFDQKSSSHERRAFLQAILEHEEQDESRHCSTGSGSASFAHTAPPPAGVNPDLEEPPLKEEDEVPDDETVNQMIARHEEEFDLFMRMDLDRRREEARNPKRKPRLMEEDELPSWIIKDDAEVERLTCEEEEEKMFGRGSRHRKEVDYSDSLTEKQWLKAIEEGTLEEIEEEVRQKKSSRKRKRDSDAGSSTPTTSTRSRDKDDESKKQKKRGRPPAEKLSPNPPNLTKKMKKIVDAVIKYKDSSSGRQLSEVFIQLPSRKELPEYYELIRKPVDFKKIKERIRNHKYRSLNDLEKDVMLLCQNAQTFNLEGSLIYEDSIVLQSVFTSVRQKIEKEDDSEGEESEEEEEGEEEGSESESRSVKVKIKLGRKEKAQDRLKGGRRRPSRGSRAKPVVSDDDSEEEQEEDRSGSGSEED

Regarding `Cc1ncsc1-c1ccc(CNC(=O)[C@@H]2C[C@@H](O)CN2C(=O)C(c2cc(O[C@H]3CC[C@H](N4CCC(c5cnc(N6C7CCC6CN(c6cc(-c8ccccc8O)nnc6N)C7)nc5)CC4)CC3)no2)C(C)C)cc1` (stereo partly drawn) [I-17, (2S,4R)-1-(2-(3-(((1r,4S)-4-(4-(2-(3-(3-amino-6-(2-hydroxyphenyl)pyridazin-4-yl)-3,8-diazabicyclo[3.2.1]octan-8-yl)pyrimidin-5-yl)piperidin-1-yl)cyclohexyl)oxy)isoxazol-5-yl)-3-methylbutanoyl)-4-hydroxy-N-(4-(4-methylthiazol-5-yl)benzyl)pyrrolidine-2-carboxamide], at SMARCA2 [1], the Dmax (commonly the largest share of the target that was removed) is greater than 90% and the DC50 (usually the midpoint of the concentration-degradation curve) is less than 100 nM. For the same compound, at SMARCA2 [2], the Dmax is greater than 90% and the DC50 is less than 100 nM.
As to `Cc1ncsc1-c1cnc(CNC(=O)[C@@H]2C[C@@H](O)CN2C(=O)[C@@H](NC(=O)[C@H]2CC3(C2)C[C@H](N2CCC(c4ccc(N5C6CCC5CN(c5cc(-c7ccccc7O)nnc5N)C6)cc4)CC2)C3)C(C)(C)C)nc1` (stereo partly drawn) [I-26, (2S,4R)-1-((2S)-2-(6-(4-(4-(3-(3-amino-6-(2-hydroxyphenyl)pyridazin-4-yl)-3,8-diazabicyclo [3.2.1]octan-8-yl)phenyl)piperidin-1-yl)spiro[3.3]heptane-2-carboxamido)-3,3-dimethylbutanoyl)-4-hydroxy-N-((5-(4-methylthiazol-5-yl)pyrimidin-2-yl)methyl)pyrrolidine-2-carboxamide], the DC50 on SMARCA4 and on SMARCA2 [2] was greater than 1000 nM in each case.
As to `Cc1ncsc1-c1cnc(CNC(=O)[C@@H]2C[C@@H](O)CN2C(=O)[C@@H](NC(=O)[C@H]2CC3(C2)C[C@H](N2CCC(c4ccc(N5C6CCC5CN(c5cc(-c7ccccc7O)nnc5N)C6)cc4)CC2)C3)C(C)(C)C)cn1` (stereo partly drawn) [I-30, (2S,4R)-1-((2S)-2-(6-(4-(4-(3-(3-amino-6-(2-hydroxyphenyl)pyridazin-4-yl)-3,8-diazabicyclo[3.2.1]octan-8-yl)phenyl)piperidin-1-yl)spiro[3.3]heptane-2-carboxamido)-3,3-dimethylbutanoyl)-4-hydroxy-N-((5-(4-methylthiazol-5-yl)pyrazin-2-yl)methyl)pyrrolidine-2-carboxamide], the DC50 on SMARCA4 and at SMARCA2 [2] was greater than 1000 nM in each case.
Regarding `Cc1ncsc1-c1ccc(CNC(=O)[C@@H]2C[C@@H](O)CN2C(=O)C(c2cc(O[C@H]3CC[C@@H](N4CCC(c5cnc(N6C7CCC6CN(c6cc(-c8ccccc8O)nnc6N)C7)nc5)CC4)CC3)no2)C(C)C)cc1` (stereo partly drawn) [I-18, (2S,4R)-1-(2-(3-(((1s,4R)-4-(4-(2-(3-(3-amino-6-(2-hydroxyphenyl)pyridazin-4-yl)-3,8-diazabicyclo[3.2.1]octan-8-yl)pyrimidin-5-yl)piperidin-1-yl)cyclohexyl)oxy)isoxazol-5-yl)-3-methylbutanoyl)-4-hydroxy-N-(4-(4-methylthiazol-5-yl)benzyl)pyrrolidine-2-carboxamide], on SMARCA2 [1], the Dmax was greater than 90% and the DC50 was less than 100 nM. Moreover, on SMARCA2 [2], the Dmax is greater than 90% and the DC50 was less than 100 nM.
As to `Cc1nccn1-c1ccc(CNC(=O)[C@@H]2C[C@@H](O)CN2C(=O)[C@@H](NC(=O)[C@H]2CC3(C2)C[C@H](N2CCC(c4cnc(N5C6CCC5CN(c5cc(-c7ccccc7O)nnc5N)C6)nc4)CC2)C3)C(C)(C)C)cc1` (stereo partly drawn) [I-34, (2S,4R)-1-((2S)-2-(6-(4-(2-(3-(3-amino-6-(2-hydroxyphenyl)pyridazin-4-yl)-3,8-diazabicyclo[3.2.1]octan-8-yl)pyrimidin-5-yl)piperidin-1-yl)spiro[3.3]heptane-2-carboxamido)-3,3-dimethylbutanoyl)-4-hydroxy-N-(4-(2-methyl-1H-imidazol-1-yl)benzyl-)pyrrolidine-2-carboxamide], the DC50 was 100 to 500 nM on SMARCA2 [1] and greater than 1000 nM at SMARCA4.
On to `Cc1ncsc1-c1ccc(CNC(=O)[C@@H]2C[C@@H](O)CN2C(=O)C(c2cc([C@H]3CC[C@@H](N4CCC(c5cnc(N6C7CCC6CN(c6cc(-c8ccccc8O)nnc6N)C7)nc5)CC4)CC3)no2)C(C)C)cc1` (stereo partly drawn) [I-19, (2S,4R)-1-(2-(3-(4-(4-(2-(3-(3-amino-6-(2-hydroxyphenyl)pyridazin-4-yl)-3,8-diazabicyclo[3.2.1]octan-8-yl)pyrimidin-5-yl)piperidin-1-yl)cyclohexyl)isoxazol-5-yl)-3-methylbutanoyl)-4-hydroxy-N-(4-(4-methylthiazol-5-yl)benzyl)pyrrolidine-2-carboxamide], for which, at SMARCA2 [1], the Dmax was greater than 90% and the DC50 is less than 100 nM. Further, at SMARCA2 [2], the Dmax was greater than 90% and the DC50 is less than 100 nM.
For `Cc1ncsc1-c1ccc(CNC(=O)[C@@H]2C[C@@H](O)CN2C(=O)C(c2cc(N3CCC(CCCN4CCC(c5cnc(N6C7CCC6CN(c6cc(-c8ccccc8O)nnc6N)C7)nc5)CC4)CC3)no2)C(C)C)cc1` (stereo partly drawn) [I-64], on SMARCA2 [1], the Dmax was greater than 90% and the half-maximal degradation concentration (DC50) was less than 100 nM. For the same compound, on SMARCA2 [2], the Dmax is greater than 90% and the DC50 is less than 100 nM.
For `Cc1ncsc1-c1ccc(CNC(=O)[C@@H]2C[C@@H](O)CN2C(=O)C(c2cc([C@H]3CC[C@H](N4CCC(c5cnc(N6C7CCC6CN(c6cc(-c8ccccc8O)nnc6N)C7)nc5)CC4)CC3)no2)C(C)C)cc1` (stereo partly drawn) [I-20, (2S,4R)-1-(2-(3-(4-(4-(2-(3-(3-amino-6-(2-hydroxyphenyl)pyridazin-4-yl)-3,8-diazabicyclo[3.2.1]octan-8-yl)pyrimidin-5-yl)piperidin-1-yl)cyclohexyl)isoxazol-5-yl)-3-methylbutanoyl)-4-hydroxy-N-(4-(4-methylthiazol-5-yl)benzyl)pyrrolidine-2-carboxamide], on SMARCA2 [2], the Dmax was greater than 90% and the DC50 was less than 100 nM.
